Earlier results in US20040072765A1, “Cardiovascular and bone treatment using isoflavones” (Novogen Research Pty Ltd., priority 1999, published 2004).

Tests used:
[1] = low doses, rats
[2] = men and women

O=c1c(-c2ccc(O)cc2)coc2cc(O)cc(O)c12 [Genistein, genistein]
cortical and trabecular bone density [1]: increased

CCOC(=O)C(C)(C)Oc1ccc(Cl)cc1 [clofibrinate]
increase in HDL levels [2]: about 10%
